For this assay, the target named is T1, Serine-threonine protein phosphatase 2A regulatory subunit (Gallus gallus, UniProt Q8AWE3).
T1 sequence (Q8AWE3 whole entry): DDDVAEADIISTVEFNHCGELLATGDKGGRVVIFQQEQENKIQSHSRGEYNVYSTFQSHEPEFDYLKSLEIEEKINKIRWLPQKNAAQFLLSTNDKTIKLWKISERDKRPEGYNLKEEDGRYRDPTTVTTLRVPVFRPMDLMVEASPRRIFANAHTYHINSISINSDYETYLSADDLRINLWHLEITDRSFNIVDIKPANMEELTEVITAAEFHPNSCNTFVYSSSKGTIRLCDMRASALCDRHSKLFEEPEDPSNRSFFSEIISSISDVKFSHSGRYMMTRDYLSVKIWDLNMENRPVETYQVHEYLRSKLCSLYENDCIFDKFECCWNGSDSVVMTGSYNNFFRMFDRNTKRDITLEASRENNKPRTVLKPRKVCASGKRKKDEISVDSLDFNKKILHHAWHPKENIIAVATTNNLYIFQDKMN
Briefly: Inhibitory concentration required against protein phosphatase 2A using pNPP assay.

Bounds are passed on as bounds.

Consider `C=C(C(=O)N[C@H](C)C(=O)N[C@@H](CC(C)C)C(=O)O)N(C)C(=O)CC[C@@H](NC(=O)[C@@H](C)[C@H](/C=C/C(C)=C/[C@H](C)[C@H](Cc1ccccc1)OC)NC(C)=O)C(=O)O`, for which half-maximal inhibition (IC50) required 16 µM. For the compound `CO[C@@H](Cc1ccccc1)[C@@H](C)/C=C(C)/C=C/[C@H](N)[C@H](C)C(=O)N[C@H](CCC(=O)N(C)CC(=O)N[C@H](C)C(=O)O)C(=O)O`, inhibition was half-maximal at 270 µM (IC50). Against the preceding compound, the IC50 is about 17-fold higher. Regarding `CO[C@@H](Cc1ccccc1)[C@@H](C)/C=C(C)/C=C/[C@H](NC(C)=O)[C@H](C)C(=O)N[C@H](CCC(=O)N(C)CC(=O)N[C@H](C)C(=O)O)C(=O)O`, the IC50 – broadly, the point on the concentration scale where inhibition reaches its midpoint – is 135 µM. Compared with the last compound, the IC50 is about 2-fold lower. `CO[C@@H](Cc1ccccc1)[C@@H](C)/C=C(C)/C=C/[C@H](NC(C)=O)[C@H](C)C(=O)N[C@H](CCC(=O)N(C)CC(=O)N[C@H](C)C(=O)N[C@@H](CC(C)C)C(=O)O)C(=O)O` registered an IC50 of 17 µM. With `COC(=O)[C@@H](CCC(=O)N(C)C)NC(=O)[C@@H](C)[C@H](/C=C/C(C)=C/[C@H](C)[C@H](Cc1ccccc1)OC)NC(C)=O`, the IC50 is above 100 µM. On to `CO[C@@H](Cc1ccccc1)[C@@H](C)/C=C(C)/C=C/[C@H](NC(C)=O)[C@H](C)C(=O)N[C@H](CCC(=O)N(C)C)C(=O)O`, for which the IC50 stood at 20 µM.

The values are drawn from ChEMBL document CHEMBL1136185, “Linearized and truncated microcystin analogues as inhibitors of protein phosphatases 1 and 2A” (Bioorg Med Chem Lett, 2003).
